In patent US5874461A, “Use of Nebivolol as an anti-atherogenic” (priority 1995, dated 1999):

Experiments:
[1] = system: rats (age-associated vascular pathology); experiment: In-vivo anti-atheromatic effect: 24-month oral study in rats, histological score of vascular degeneration/aging
Description: In order to verify whether nebivolol had any effects on age-associated vascular pathology, a number of rats were administered nebivolol orally at dosages of 0 (carrier-only), 2.5, 10 and 40 mg/kg during 24 months. As a carrier there was used 2-hydroxypropyl-β-cyclodextrin which improves the bioavailability of nebivolol. At each dose a male and a female group of 50 were entered in the 2 year study. […] The test animals were autopsied and observed for histological non-neoplastic changes.
vasculopathy of the abdominal mesothelia, pancreas, and testis,
focal and diffuse hyperplasia of the parathyroid gland, and
the renal histology, in particular the number of basophilic tubuli, evidence for chronic renal disease and for mineralization.
Histopathological observations received a score from 0 to 3 as follows:
0: no histological change
1: slight histological change
2: moderate histological change
3: severe histological change.
For each observation a mean score was calculated. The observed ratings were analysed using the Mann-Whitney U test (two tailed probability) to detect statistically significant differences between the control groups and the treated groups. Significance computed by Mann-Whitney U test two-tailed: * p<0.05 ** p<0.01 p<0.001.

[2] = system: spontaneous hypertensive rats; conditions: acute; cited from earlier work
anaesthetized dogs = conditions: anaesthesized dogs; cited from earlier work
human LDL = experiment: In vitro oxidation of human LDL (Cu-induced conjugated diene formation at 234 nm); assay type: biochemical; conditions: in vitro
Description: In vitro oxidation of human LDL Human venous blood was collected on EDTA (2.68 mM final concentration). Plasma was isolated by centrifugation. NaBr (37.3 mg/ml) was added and solubulized (final density 1.036 g/ml). Centrifuge tubes were first filled to a level corresponding to 2/3 of their maximal volume, further filled with a NaBr solution of 1.036 g/ml and then centrifuged for 18 hours at 45000 rpm in a 50 Ti rotor (Beckmann). After centrifugation, floating lipoproteins were discarded. The remaining solution was adjusted to a density of 1.055 g/ml. Filling of the centrifuge tubes and centrifugation were repeated as described above. After centrifugation, floating LDL was dialysed against a buffer containing 127 mM NaCl, 8 mM Na2 HPO4.2H2 O, 2.7 mM KCl and 1.47 mM KH2 PO4 at pH 7.4. After dialysis, LDL was filtered though a Millipore filter (0.45 μM) and protein content was determined. A dilution of 25 μg/ml was prepared with a millipored dialysis buffer. Oxidation was determined in a Pharmacia Ultraspec III spectrophotometer. Conjugated diene formation was registered at 234 nm. Two μl of a drug or solvent (DMSO) were added to Eppendorf tubes followed by 1 ml of LDL (25 μg/ml) and these substances were gently mixed and centrifuged for 1 min at 13000 g. The solution was pipetted in a Quartz cuvet that was thermostatised in the spectrophotometer at 37° C. After equilibration, the oxidation reaction was started by the addition of CuSO4 (final concentration 10 μM). Absorbance was measured every 3 minutes during the time course of the experiment. The absorbance at 234 nm was divided into three phases: a lag phase, a propagation phase and a decomposition phase (FIG. 1). The lag phase was defined as the intercept with the baseline of the tangent of the slope of the absorbance curve of the propagation phase. The rate of oxidation was defined as the tangent of the slope. Tmax was defined as the time required to attain the maximum absorbance between the propagation and the decomposition phase. The absorbance at tmax minus the absorbance at to was taken as an indicator of the total amount of dienes formed. To verify the reproducibility of the assay, a reference LDL sample was prepared and kept in darkness under nitrogen at 4° C. This reference sample was included in every oxidation experiment. LDL was isolated from 23 subjects. Plasma cholesterol ranged from 156 to 278 mg/dl (mean 213 mg/dl), triglycerides ranged from 47 to 328 mg/dl (mean 191 mg/dl) and phospholipids ranged from 178 to 327 mg/dl (mean 231 mg/dl).

[3] = females, 2.5 mg/kg oral, 24 months
[4] = females, 10 mg/kg oral, 24 months
[5] = females, 40 mg/kg oral, 24 months
[6] = males, 2.5 mg/kg oral, 24 months
[7] = males, 10 mg/kg oral, 24 months
[8] = males, 40 mg/kg oral, 24 months

**Q.** With O[C@H](CNC[C@@H](O)[C@H]1CCc2cc(F)ccc2O1)[C@@H]1CCc2cc(F)ccc2O1 (relative stereo) [nebivolol, (RSSS) and (SRRR) α,α'-iminobis(methylene)bis[6-fluoro-2-chroman-methanol]] as the compound, how does the “normal aging of the vascular system” value ([1]; chronic treatment, versus control animals) read?
**A.** The value was “the normal aging of the vascular system as seen in the control animals is suppressed”.

**Q.** And the “Kidney: basophilic tubuli, mean score (0-3)” value (from here on “Kidney: basophilic tubuli”) [1, 3]?
**A.** Its value is 0.18.

**Q.** What about the “Kidney: chronic disease, mean score (0-3)” value (“Kidney: chronic disease” for short) [1, 3] of the same compound?
**A.** Its value is 0.88.

**Q.** And the “Kidney: mineralization (parenchum/pelvis), mean score (0-3)” value [1, 3]?
**A.** The value was 0.84.

**Q.** And the “Pancreas: vasculopathy, mean score (0-3)” value [1, 3]?
**A.** The value was 0.04.

**Q.** And the “Kidney: basophilic tubuli” value [1, 4]?
**A.** The value was 0.18.

**Q.** And the “Kidney: chronic disease” value [1, 4]?
**A.** The value was 0.92.

**Q.** And the “Kidney: mineralization (parenchum/pelvis), mean score (0-3)” value [1, 4]?
**A.** The value was 0.64.

**Q.** What about the “Pancreas: vasculopathy, mean score (0-3)” value [1, 4] of the same compound?
**A.** Its value is 0.02.

**Q.** What about the “Kidney: basophilic tubuli” value [1, 5] of the same compound?
**A.** Its value is 0.42.

**Q.** What about the “Kidney: chronic disease” value [1, 5] of the same compound?
**A.** The value was 0.78.

**Q.** And the “Kidney: mineralization (parenchum/pelvis), mean score (0-3)” value [1, 5]?
**A.** The value was 0.14.

**Q.** And the “Pancreas: vasculopathy, mean score (0-3)” value [1, 5]?
**A.** The value was 0.00.

**Q.** What about the “Kidney: basophilic tubuli” value [1, 6] of the same compound?
**A.** The value was 0.18.

**Q.** And the “Kidney: chronic disease” value [1, 6]?
**A.** Its value is 1.32.

**Q.** And the “Pancreas: vasculopathy, mean score (0-3)” value [1, 6]?
**A.** Its value is 0.04.

**Q.** What about the “Parathyroid gland: diffuse hyperplasia, mean score (0-3)” value (shortened to “Parathyroid gland: diffuse hyperplasia”) [1, 6] of the same compound?
**A.** The value was 0.08.

**Q.** And the “Parathyroid gland: focal hyperplasia, mean score (0-3)” value (“Parathyroid gland: focal hyperplasia” below) [1, 6]?
**A.** The value was 0.04.

**Q.** And the “Testis: vasculopathy, mean score (0-3)” value [1, 6]?
**A.** Its value is 0.20.

**Q.** What about the “Kidney: basophilic tubuli” value [1, 7] of the same compound?
**A.** Its value is 0.18.

**Q.** What about the “Kidney: chronic disease” value [1, 7] of the same compound?
**A.** Its value is 1.24.

**Q.** And the “Pancreas: vasculopathy, mean score (0-3)” value [1, 7]?
**A.** The value was 0.02.

**Q.** What about the “Parathyroid gland: diffuse hyperplasia” value [1, 7] of the same compound?
**A.** The value was 0.15.

**Q.** And the “Parathyroid gland: focal hyperplasia” value [1, 7]?
**A.** Its value is 0.02.

**Q.** And the “Testis: vasculopathy, mean score (0-3)” value [1, 7]?
**A.** Its value is 0.08.

**Q.** And the “Abdominal mesothelia: vasculopathy, mean score (0-3)” value [1, 8]?
**A.** The value was 0.00.

**Q.** What about the “Kidney: basophilic tubuli” value [1, 8] of the same compound?
**A.** The value was 0.60.

**Q.** What about the “Kidney: chronic disease” value [1, 8] of the same compound?
**A.** Its value is 0.66.

**Q.** What about the “Pancreas: vasculopathy, mean score (0-3)” value [1, 8] of the same compound?
**A.** The value was 0.00.

**Q.** And the “Parathyroid gland: diffuse hyperplasia” value [1, 8]?
**A.** Its value is 0.02.

**Q.** What about the “Parathyroid gland: focal hyperplasia” value [1, 8] of the same compound?
**A.** Its value is 0.00.

**Q.** What about the “Testis: vasculopathy, mean score (0-3)” value [1, 8] of the same compound?
**A.** The value was 0.02.

**Q.** And the blood pressure [2]?
**A.** The blood pressure was “acutely lowers blood pressure”.

**Q.** What about the stroke volume (anaesthetized dogs) of the same compound?
**A.** The stroke volume was “augments stroke volume”.

**Q.** And the “total peripheral vascular resistance” value (anaesthetized dogs)?
**A.** Its value is “decreases total peripheral vascular resistance”.

**Q.** What about the “antioxidative effect on human LDL” value (human LDL) of the same compound?
**A.** Its value is “no antioxidative effect”.
